# Data reported in publication PMC9598656, “In Vitro Activity of Robenidine Analogues NCL259 and NCL265 against Gram-Negative Pathogens” (Antibiotics, 2022).
# How the values were obtained:
# [1] = tested on: Wild-type (E. coli BW 25113); test: MIC, efflux-pump wild-type; type: cell-based; settings: Escherichia coli; Wild-type (E. coli BW 25113); read-out: MIC Values
# Experimental: (§1) A variety of Gram-negative reference strains (E. coli ATCC 25922, E. coli ATCC 10763, P. aeruginosa PAO1, P. aeruginosa ATCC 27853, A. baumannii ATCC 12457, A. baumannii ATCC 19606, K. pneumoniae ATCC 4352 and K. pneumoniae ATCC 33495) were used for initial screening and combination testing with PMB. The organisms were speciated using biochemical testing and MALDI-TOF mass spectrometry (Bruker, Preston, VIC, Australia). Activity testing of NCL259 and NCL265 was also carried out on 51 extraintestinal clinical E. coli isolates from companion animals, and 83 porcine and bovine enterotoxigenic E. coli (ETEC) isolates from the Australian Centre for Antimicrobial Resistance Ecology collection. E. coli wild-type (BW 25113) and its mutant BW 25113∆AcrB, in which the inner membrane component AcrB of the tripartite multidrug efflux system AcrA/AcrB/TolC has been deleted, were obtained from the bacterial collection held at Health and Biomedical Innovation, Clinical and Health Sciences, The University of South Australia. All isolates were cultured on sheep blood agar (SBA) plates at 37 °C for 18 h before being subcultured into Luria Bertaini (LB) (Oxoid, Scoresby, VIC, Australia) broth and grown to A600nm = 0.5 (equivalent to approx. 1.5 × 10^8 colony-forming units (CFU)/mL).
# MICs for NCL259 and NCL265 (serial two-fold dilutions commencing at 256 µg/mL) were determined (in duplicate) in round bottom 96–well microtitre trays (Sarstedt 82.1582.001), using the broth micro-dilution method recommended by the Clinical and Laboratory Standards Institute (CLSI). We have shown previously that robenidine can chelate calcium ions from cation-adjusted Mueller-Hinton broth, which causes the loss of activity of robenidine. Therefore, LB broth was used in this study. […] The MIC for ampicillin against each isolate was determined for each test to serve as an internal quality control. The MICs of isolates were determined by visual reading and using an EnSpire Multimode Plate Reader 2300 at A600nm.
# E. coli BW 25113 (∆AcrB) = test: MIC, efflux-pump mutant; type: cell-based, Escherichia coli; settings: Escherichia coli, read-out: MIC Values
# Experimental: as §1
# MICs for NCL259 and NCL265 (serial two-fold dilutions commencing at 256 µg/mL) were determined (in duplicate) in round bottom 96–well microtitre trays (Sarstedt 82.1582.001), using the broth micro-dilution method recommended by the Clinical and Laboratory Standards Institute (CLSI). We have shown previously that robenidine can chelate calcium ions from cation-adjusted Mueller-Hinton broth, which causes the loss of activity of robenidine. Therefore, LB broth was used in this study. Additionally, considering the low solubility of robenidine and its analogues in aqueous solutions, two-fold serial dilutions of stock solutions of these compounds were prepared in 100% DMSO [21]. The MIC for ampicillin against each isolate was determined for each test to serve as an internal quality control. The MICs of isolates were determined by visual reading and using an EnSpire Multimode Plate Reader 2300 at A600nm.
compound,measurement,setting,value
"CC[C@H]1OC(=O)[C@H](C)[C@@H](O[C@H]2C[C@@](C)(OC)[C@@H](O)[C@H](C)O2)[C@H](C)[C@@H](O[C@@H]2O[C@H](C)C[C@H](N(C)C)[C@H]2O)[C@](C)(O)C[C@@H](C)C(=O)[C@H](C)[C@@H](O)[C@]1(C)O [Erythromycin, reference compound]",MIC,[1],> 128 µg/mL
same,MIC,E. coli BW 25113 (∆AcrB),2 µg/mL
